The text below walks through data of patent US20070264243A1, “REVERSIBLY IMMORTALIZED HEPATOCYTES AND METHODS OF USE” (priority 1999, published 2007).

Assay [1] concerns tumors in SCID mice. Put plainly: Tumor sensitivity to gancyclovir in tumor-bearing SCID mice. The format is in vivo, mouse. The method, then:
SCID mouse studies. The tumorigenicity of cell lines was assayed by subcutaneous injection of cells into the flanks of immunodeficient (SCID) mice. Cells were dislodged from monolayer culture with trypsin, washed, and suspended in PBS. SCID mice were inoculated subcutaneously with 1×10^6 cells per site. Animals were monitored every third day for the development of growth at the sites of injection. Animals were sacrificed at 24 weeks or when tumors reached 1 to 2 cm in diameter. Tumors were processed for routine histology and immunohistochemistry. To determine tumor sensitivity to treatment with gancyclovir, some animals were given a 0.2 ml intraperitoneal injection of gancyclovir (50 mg/kg) daily for 14 days when tumors reached 1-1.2 cm in size.

Assay [2] concerns NKNT-3 cells. Put plainly: MTT cytotoxicity assay. The format is cell-based, human. On the procedure:
MTT Cytotoxicity Assays. Sensitivity of NKNT-3 cells to either 5 μM ganciclovir or G418 (500 μg/ml) was confirmed by 3-(4,5-dimethyl-2-thiazolyl)-2,5-diphenyl 2H-tetrazolium bromide (MTT) cytotoxicity assays. NKNT-3 cells were plated in a 96-well microplate at 5×10^3 cells per well to obtain a growth curve. On days 1, 3, 5, and 7, MTT (20 μg/ml) was added to a different well, incubated for 4 h, and then reacted with 150 μl of isopropanol for 10 min. Relative percentage of viability was determined by the ratio of absorbance at 570 and 630 nm with Bio-Rad EIA reader (Bio-Rad, Richmond, Calif.).
For orientation: Formazan colour is commonly taken as a measure of viable cells.

Assay [3] deals with C8-B/Ras cells. In words: Soft agar assay, sensitivity of colonies to gancyclovir. The format is cell-based, rat. The method, then:
Soft agar assay. To assay the capacity for anchorage independent growth, 5×10^4 cells were suspended in 2 ml of 0.3% Difco agar in IM and gently overlaid onto 60 mm dishes containing a lower layer of 0.5% agar. Cultures were fed every 5 to 7 days with a small amount of media. After 20 days of growth at 37° C., the dishes were stained with 0.5 mg/ml p-iodonitrotetrazolium violet (Sigma Chemical Co., St. Louis, Mo.), and macroscopically visible colonies (>100 μm in diameter) were scored. HepG2 cells were used as a positive control.

Entries after “also recorded” stand apart in the source; their conditions may differ.

In the case of `Nc1nc(O)c2ncn(COC(CO)CO)c2n1` [gancyclovir], in assay [1] (4-week post-gancyclovir observation period), the tumor recurrence entry is recorded as “no tumor recurrence”. Also, the “tumor response by the end of gancyclovir treatment” value in assay [1] (gancyclovir 50 mg/kg, 14-day course) is “could no longer be identified clinically or histologically; also recorded: complete regression of established tumors”. The “time until tumors stopped growing” value in assay [1] (gancyclovir 50 mg/kg, 14-day course, tumors >1 cm) is no more than 5 days. In assay [2] (5 μM ganciclovir), the “sensitivity of NKNT-3 cells to ganciclovir” value is listed as “confirmed”. For the same molecule, the “rare three-dimensional colonies after Ad-Cre infection, sensitivity to gancyclovir” value in assay [3] (C8-B/Ras cells after Ad-Cre infection) is given as “all were sensitive”. In assay [3] (media containing 5 μM gancyclovir), the “C8-B/Ras soft agar colonies, sensitivity to gancyclovir” value was “could be eliminated”.
Take `CN[C@@H]1[C@@H](O)[C@@H](O[C@@H]2[C@@H](O)[C@H](O[C@H]3O[C@H]([C@@H](C)O)[C@@H](O)[C@H](O)[C@H]3N)[C@@H](N)C[C@H]2N)OC[C@]1(C)O` [G418]: the “sensitivity of NKNT-3 cells to G418” value in assay [2] (G418 500 μg/ml) is “confirmed”.
